“And” between values parts separate entries of the source, which are not always exact repeats. Identical values can stand only once.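 Assay format: 96-well plates, 48-hour exposure. Abbreviation: GI50, concentration required for 50% inhibition of growth.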 The source made the active and inactive calls. Rule as the data show it: active = GI50 up to about 1.1 µM and inactive = higher.
Legend:
Assay in all cases: NCI tumour cell line growth inhibition, 48 h
U-251 = test system: U-251
SNB-19 = test system: SNB-19
CAKI-1 = test system: CAKI-1
LOX IMVI = test system: LOX IMVI
NCI-H23 = test system: NCI-H23
K562 = test system: K562
SK-MEL-2 = test system: SK-MEL-2
HL-60 = test system: HL-60
NCI/ADR-RES = test system: NCI/ADR-RES
SF-539 = test system: SF-539
PC-3 = test system: PC-3
SK-OV-3 = test system: SK-OV-3
RXF 393 = test system: RXF 393
SNB-75 = test system: SNB-75
HT-29 = test system: HT-29
Hs-578T = test system: Hs-578T
HCT-116 = test system: HCT-116
RPMI-8226 = test system: RPMI-8226
CCRF-CEM = test system: CCRF-CEM
HCT-15 = test system: HCT-15
786-0 = test system: 786-0
MDA-N = test system: MDA-N
SN12C = test system: SN12C
MOLT-4 = test system: MOLT-4
UACC-257 = test system: UACC-257
A498 = test system: A498
COLO 205 = test system: COLO 205
HCC 2998 = test system: HCC 2998
UO-31 = test system: UO-31
OVCAR-5 = test system: OVCAR-5
SR = test system: SR
ACHN = test system: ACHN
SK-MEL-28 = test system: SK-MEL-28
SF-268 = test system: SF-268
UACC-62 = test system: UACC-62
MCF7 = test system: MCF7
T47D = test system: T47D
IGROV-1 = test system: IGROV-1
TK-10 = test system: TK-10
SK-MEL-5 = test system: SK-MEL-5
MDA-MB-435 = test system: MDA-MB-435
SW-620 = test system: SW-620
A549 = test system: A549
SF-295 = test system: SF-295
EKVX = test system: EKVX
OVCAR-8 = test system: OVCAR-8
NCI-H226 = test system: NCI-H226
KM12 = test system: KM12
Malme-3M = test system: Malme-3M
OVCAR-3 = test system: OVCAR-3
DU-145 = test system: DU-145
NCI-H460 = test system: NCI-H460
HOP-62 = test system: HOP-62
MDA-MB-231 = test system: MDA-MB-231
OVCAR-4 = test system: OVCAR-4
M14 = test system: M14

With `Cc1cc(NCCCCCCNc2cc(C)nc3ccc(N)cc23)c2cc(N)ccc2n1` the GI50 (U-251) was 42.3 µM (inactive) and the GI50 (SNB-19) was 37 µM (inactive).

With `Cc1cc(-c2nc3ccc(O)cc3s2)ccc1N` the GI50 (CAKI-1) was 34.8 µM (inactive).

With `CCOC(=O)C(Cl)(NC(=O)NC(Cl)(C(=O)OCC)C(F)(F)F)C(F)(F)F` (centres undefined) the GI50 (LOX IMVI) was > 100 µM (inactive), the GI50 (NCI-H23) was > 100 µM (inactive) and the GI50 (K562) was > 100 µM (inactive). The GI50 (SK-MEL-2) was > 100 µM (inactive), the GI50 (HL-60) was > 100 µM (inactive) and the GI50 (NCI/ADR-RES) was > 100 µM (inactive). For the same molecule, the GI50 (SF-539) was > 100 µM (inactive), the GI50 (PC-3) was > 100 µM (inactive) and the GI50 (SK-OV-3) was > 100 µM (inactive). The GI50 (RXF 393) was > 100 µM (inactive), the GI50 (SNB-75) was > 100 µM (inactive) and the GI50 (HT-29) was > 100 µM (inactive). The GI50 (Hs-578T) was > 100 µM (inactive), the GI50 (HCT-116) was > 100 µM (inactive) and the GI50 (RPMI-8226) was > 100 µM (inactive). For the same molecule, the GI50 (U-251) was > 100 µM (inactive), the GI50 (CCRF-CEM) was > 100 µM (inactive) and the GI50 (HCT-15) was > 100 µM. For the same molecule, the GI50 (786-0) was > 100 µM (inactive), the GI50 (MDA-N) was > 100 µM (inactive) and the GI50 (SN12C) was > 100 µM (inactive). For the same molecule, the GI50 (MOLT-4) was > 100 µM (inactive), the GI50 (UACC-257) was > 100 µM (inactive) and the GI50 (A498) was > 100 µM (inactive). For the same molecule, the GI50 (SNB-19) was > 100 µM (inactive), the GI50 (COLO 205) was > 100 µM (inactive) and the GI50 (HCC 2998) was > 100 µM (inactive). The GI50 (UO-31) was > 100 µM (inactive), the GI50 (OVCAR-5) was > 100 µM (inactive) and the GI50 (SR) was > 100 µM (inactive). The GI50 (ACHN) was > 100 µM (inactive), the GI50 (SK-MEL-28) was > 100 µM (inactive) and the GI50 (SF-268) was > 100 µM (inactive).

In the case of `CC1(C)C2CC(=O)C1(C)C(OCc1ccccc1)C2Br` (centres undefined), the GI50 (NCI-H23) was 40.7 µM (inactive) and 27.9 µM (inactive), the GI50 (K562) was 27.1 µM (inactive) and 23.2 µM (inactive) and the GI50 (HL-60) was 22.5 µM (inactive) and 23.2 µM (inactive). For the same molecule, the GI50 (UACC-62) was 34.9 µM (inactive) and 58.3 µM (inactive), the GI50 (NCI/ADR-RES) was 20.7 µM (inactive) and 36.7 µM (inactive) and the GI50 (MCF7) was 36 µM (inactive) and 62.8 µM (inactive). For the same molecule, the GI50 (PC-3) was 18 µM (inactive) and 28.6 µM (inactive), the GI50 (T47D) was 46.2 µM (inactive) and 28.2 µM (inactive) and the GI50 (IGROV-1) was 74.8 µM (inactive) and 43.8 µM (inactive). For the same molecule, the GI50 (HT-29) was 15.5 µM (inactive) and 22.6 µM (inactive), the GI50 (TK-10) was 53.6 µM (inactive) and the GI50 (HCT-116) was 19.3 µM (inactive) and 38.2 µM (inactive). The GI50 (CCRF-CEM) was 15.8 µM (inactive) and 20.5 µM (inactive), the GI50 (SK-MEL-5) was 14.6 µM (inactive) and 20.7 µM (inactive) and the GI50 (HCT-15) was 17.3 µM and 34 µM. For the same molecule, the GI50 (MOLT-4) was 17.7 µM (inactive) and 17.3 µM (inactive), the GI50 (MDA-MB-435) was 29.9 µM (inactive) and 25.6 µM (inactive) and the GI50 (SR) was 21.4 µM (inactive) and 25.1 µM (inactive). The GI50 (SW-620) was 19.3 µM (inactive) and 32.7 µM (inactive), the GI50 (A549) was 37.8 µM (inactive) and 59.3 µM (inactive) and the GI50 (SF-295) was 25.2 µM (inactive) and 50.4 µM (inactive). The GI50 (EKVX) was 50 µM (inactive) and 57.9 µM (inactive) and the GI50 (SF-268) was 56.6 µM (inactive).

For `O=[N+]([O-])c1ccc2nc3n(c2c1)C(c1c(F)cccc1F)SC3` (centres undefined), the GI50 (LOX IMVI) was > 100 µM (inactive), the GI50 (NCI-H23) was > 100 µM (inactive) and the GI50 (K562) was > 10 µM (inactive). The GI50 (NCI/ADR-RES) was > 100 µM (inactive), the GI50 (MCF7) was > 100 µM (inactive) and the GI50 (PC-3) was > 100 µM (inactive). The GI50 (SK-OV-3) was > 100 µM (inactive), the GI50 (T47D) was > 10 µM (inactive) and the GI50 (IGROV-1) was > 100 µM (inactive). For the same molecule, the GI50 (HT-29) was > 100 µM (inactive), the GI50 (Hs-578T) was > 100 µM (inactive) and the GI50 (TK-10) was > 100 µM (inactive). For the same molecule, the GI50 (HCT-116) was > 100 µM (inactive), the GI50 (RPMI-8226) was > 10 µM (inactive) and the GI50 (U-251) was > 100 µM (inactive). The GI50 (CCRF-CEM) was > 100 µM (inactive), the GI50 (SK-MEL-5) was > 10 µM (inactive) and the GI50 (OVCAR-8) was > 10 µM (inactive). For the same molecule, the GI50 (786-0) was > 100 µM (inactive), the GI50 (MDA-N) was > 100 µM (inactive) and the GI50 (SN12C) was > 100 µM (inactive). For the same molecule, the GI50 (NCI-H226) was > 100 µM (inactive), the GI50 (KM12) was > 100 µM (inactive) and the GI50 (MOLT-4) was > 100 µM (inactive). The GI50 (UACC-257) was > 100 µM (inactive), the GI50 (A498) was > 100 µM (inactive) and the GI50 (SNB-19) was > 100 µM (inactive). The GI50 (Malme-3M) was > 100 µM (inactive), the GI50 (OVCAR-5) was > 100 µM (inactive) and the GI50 (SR) was 92.3 µM (inactive). The GI50 (SW-620) was > 100 µM (inactive), the GI50 (OVCAR-3) was > 100 µM (inactive) and the GI50 (ACHN) was > 100 µM (inactive). The GI50 (DU-145) was > 100 µM (inactive), the GI50 (A549) was > 10 µM (inactive) and the GI50 (SK-MEL-28) was > 100 µM (inactive). The GI50 (NCI-H460) was > 100 µM (inactive), the GI50 (HOP-62) was > 100 µM (inactive) and the GI50 (SF-295) was 89.5 µM (inactive). For the same molecule, the GI50 (EKVX) was > 100 µM (inactive) and the GI50 (MDA-MB-231) was > 100 µM (inactive).

In the case of `COc1ccc2c(C)cc(=O)oc2c1OC`, the GI50 (LOX IMVI) was > 100 µM (inactive), the GI50 (NCI-H23) was > 100 µM (inactive) and the GI50 (K562) was > 100 µM (inactive). The GI50 (SK-MEL-2) was > 100 µM (inactive), the GI50 (OVCAR-4) was > 100 µM (inactive) and the GI50 (UACC-62) was > 100 µM (inactive). The GI50 (NCI/ADR-RES) was > 100 µM (inactive), the GI50 (MCF7) was > 100 µM (inactive) and the GI50 (PC-3) was > 100 µM (inactive). For the same molecule, the GI50 (SK-OV-3) was > 100 µM (inactive), the GI50 (SNB-75) was > 100 µM (inactive) and the GI50 (IGROV-1) was > 100 µM (inactive). The GI50 (HT-29) was > 100 µM (inactive), the GI50 (Hs-578T) was > 100 µM (inactive) and the GI50 (TK-10) was > 100 µM (inactive). For the same molecule, the GI50 (HCT-116) was > 100 µM (inactive), the GI50 (RPMI-8226) was > 100 µM (inactive) and the GI50 (U-251) was > 100 µM (inactive). For the same molecule, the GI50 (CCRF-CEM) was > 100 µM (inactive), the GI50 (SK-MEL-5) was > 100 µM (inactive) and the GI50 (OVCAR-8) was > 100 µM (inactive). For the same molecule, the GI50 (HCT-15) was > 100 µM, the GI50 (786-0) was > 100 µM (inactive) and the GI50 (MDA-N) was > 100 µM (inactive). For the same molecule, the GI50 (SN12C) was > 100 µM (inactive), the GI50 (NCI-H226) was > 100 µM (inactive) and the GI50 (KM12) was > 100 µM (inactive). For the same molecule, the GI50 (MOLT-4) was > 100 µM (inactive), the GI50 (UACC-257) was > 100 µM (inactive) and the GI50 (MDA-MB-435) was > 100 µM (inactive). The GI50 (A498) was > 100 µM (inactive), the GI50 (SNB-19) was > 100 µM (inactive) and the GI50 (COLO 205) was > 100 µM (inactive). For the same molecule, the GI50 (UO-31) was > 100 µM (inactive), the GI50 (Malme-3M) was > 100 µM (inactive) and the GI50 (OVCAR-5) was > 100 µM (inactive). For the same molecule, the GI50 (SR) was > 100 µM (inactive), the GI50 (SW-620) was > 100 µM (inactive) and the GI50 (M14) was > 100 µM (inactive). For the same molecule, the GI50 (OVCAR-3) was > 100 µM (inactive), the GI50 (ACHN) was > 100 µM (inactive) and the GI50 (DU-145) was > 100 µM (inactive). For the same molecule, the GI50 (A549) was > 100 µM (inactive), the GI50 (SK-MEL-28) was > 100 µM (inactive) and the GI50 (HOP-62) was > 100 µM (inactive). The GI50 (SF-295) was > 100 µM (inactive), the GI50 (EKVX) was > 100 µM (inactive) and the GI50 (SF-268) was > 100 µM (inactive). The GI50 (MDA-MB-231) was > 100 µM (inactive).

Source: ChEMBL document CHEMBL1201862, “PubChem BioAssay data set” (2004)
